Measurements reported in US6723710B2, “Compositions for inhibiting arginase activity” (The Trustees of the University of Pennsylvania, priority 1997, dated 2004).
“And” between values parts separate entries of the source, which are not always exact repeats. Equal entries are not always repeated. “Also recorded” adds a separate entry of the source. Where two headings read alike, the source gives them in different places.

Columns and labels:
arginase [1] = molecular target: T1, arginase (Rattus norvegicus, UniProt P07824); conditions: cited from earlier work
T1 sequence (P07824 1-323): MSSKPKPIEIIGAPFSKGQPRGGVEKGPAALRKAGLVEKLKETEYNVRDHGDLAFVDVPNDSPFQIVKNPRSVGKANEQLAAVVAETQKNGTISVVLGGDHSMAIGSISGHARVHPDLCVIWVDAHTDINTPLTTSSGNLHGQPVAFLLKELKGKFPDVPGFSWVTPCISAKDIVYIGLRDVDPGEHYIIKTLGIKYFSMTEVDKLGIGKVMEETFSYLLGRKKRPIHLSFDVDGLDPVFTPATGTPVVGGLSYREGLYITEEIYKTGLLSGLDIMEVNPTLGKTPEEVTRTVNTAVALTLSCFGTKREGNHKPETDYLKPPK

[2] = system: internal anal sphincter (IAS) smooth muscle; assay: NANC nerve-mediated relaxation of IAS smooth muscle strips by electrical field stimulation; design: species or system opossum (Didelphis virginiana); conditions: for reversal of L-NNA-suppressed IAS relaxation: with L-NNA, L-HO-Arg and ABHA 3×10^−4 molar; for decrease in IAS tension after L-HO-Arg: 3×10^−4 molar
Source text: The entire anal canal was isolated carefully by dissection and transferred to a dissecting tray containing oxygenated (95% O2 plus 5% CO2) Krebs' solution. The composition of the Krebs' solution was as follows (in millimolar): NaCl, 118.07; KCl 4.69; […] MgSO4, 1.16; […] NaHCO3, 25 and glucose (Pufahl et al., 1995, Biochemistry 34:1930-1941; […] et al., 1993, Biochem. Biophys. Res. Commun. 196:1558-1565). The anal canal was cleaned of extraneous connective tissue and blood vessels. Following this, the anal canal was opened by making an incision along the longitudinal axis, and was pinned flat with the mucosal side facing up. The mucosa and submucosa were removed by sharp dissection. Circular smooth muscle strips were obtained from the whole circumference of the anal canal and divided into two equal strips (about 1×8 millimeters). Both ends of the muscle strips were secured with silk sutures (4-0: Ethicon Inc., Sommerville, N.J.) and used for the measurement of isometric tension. […] One end of each muscle strip was fixed to the bottom of the muscle bath with a tissue holder and the other end was attached to an isometric force transducer (model FT03; Grass Instruments Co., Quincy, Mass.) in order to measure isometric tension. Smooth muscle tension was recorded using a […] recorder (model […]; Beckman Instruments, Schiller Park, Ill.). […] J. Physiol. 255:[…]-[…]). Only those smooth muscle strips that developed spontaneous and steady tension and relaxed in response to electrical field stimulation (EFS) were used. EFS was delivered, via a pair of platinum wires, from a Grass stimulator (Model S88; Grass Instruments Co., Quincy, Mass.) connected in series to a Med-Lab […] (Med-Lab Instruments, Loveland, Colo.). […] These parameters of EFS are known to cause relaxation of IAS smooth muscle by selective activation of NANC myenteric neurons. Neurally-mediated relaxation of IAS smooth muscle strips was quantified in response to different frequencies of EFS. […] To determine the influence of arginase on NANC nerve-mediated relaxation of IAS, the effects of different doses of arginase on relaxation were first determined. […] The effectiveness of arginase inhibitors (L-OH-Arg and ABHA) on arginase-induced attenuation of EFS-induced IAS relaxation was then tested. Optimal doses of arginase and L-OH-Arg in IAS have been reported ([…] and […]. Pharmacol. Exp. Ther. 282:378-384). In order to determine the selectivity of arginase inhibitors in IAS, their effects on IAS relaxation suppressed by the NO synthase inhibitor L-NNA ([…]) were tested. […] To examine the physiological relevance of arginase inhibitors in IAS relaxation, the influence of selected concentrations of arginase inhibitors on EFS-induced IAS relaxation was examined. […] Each smooth muscle strip served as its own control. […] The results are expressed as means±standard error.

rat liver arginase [3] = molecular target: T2, rat liver arginase (Rattus norvegicus, UniProt P07824); assay: continuous chromogenic arginase assay with substrate 1-nitro-3-guanidinobenzene (compound 18); assay type: biochemical; design: made in house; conditions: for tnpseudo (moles of inhibitor/mole of arginase): 2 millimolar compound 18 as substrate, pseudo-turnover number, smaller = better inhibition
T2 sequence (P07824 1-323): T1 sequence (P07824 1-323)
Description: The activity of wild-type arginase was monitored spectrophotometrically using a Pharmacia BIOTECH ULTROSPEC™ 2000. Assays were performed in a solution comprising 100 micromolar MnCl2 and 50 millimolar bicine-NaOH (pH 9.0). […] Eadie-Hofstee plots were used to analyze the data.

rat liver arginase [4] = molecular target: T2, rat liver arginase; assay: [14C-guanidino]-arginine arginase activity assay (Example 2); assay type: biochemical; conditions: 100 millimolar CHES, pH 9.0, 1 millimolar arginine; read-out: IC50 for inhibition of arginase
Description: Arginase activity was assessed using the ^(14C-guanidino)-arginine assay of Rüegg et al. (1980, Anal. Biochem. 102:206-212), as described (Reczkowski et al., 1994, Arch. Biochem. Biophys. 312:31-37). […] […] et al., 1994, Biochem. Biophys. Res.

liver arginase activity = assay: arginase activity in liver homogenate; assay type: biochemical, opossum; conditions: for potency against liver arginase activity relative to non-hepatic tissues: liver versus IAS, rectum, brain
Source text: (§1) Tissue samples of the opossum internal anal sphincter muscle (IAS), adjoining rectal tissue, liver, and brain were homogenized using an ULTRATURRAX™ tissue homogenizer (Tekamr, Cincinnati, Ohio) in a solution comprising 10 millimolar Tris-HCl, 150 millimolar KCl, and 25 millimolar MnCl2, at pH 7.4. The homogenates were dialyzed overnight against the same solution. Dialyzed homogenates were centrifuged to remove insoluble material and concentrated with Amicon CENTRICON™ 30 microconcentrators to yield stock protein preparations having protein concentrations of 2.4 milligrams per milliliter for IAS smooth muscle, 3.6 milligrams per milliliter for rectal smooth muscle, 3 milligrams per milliliter for brain, and 17.5 milligrams per milliliter for liver. Protein concentrations were estimated with the Pierce Coomassie Protein Reagent kit using bovine serum albumin as a standard.
(§2) Arginase activity in tissue homogenates was evaluated using the radioactive L-[guanidino^14C]arginine assay of Rüegg and Russell (1980, Anal. Biochem. 102:206-212). Assays were performed using a solution comprising 100 millimolar CHES-NaOH and 0.1 millimolar MnCl2 at pH 9.0. The reactions were initiated by addition of 5 microliters of tissue homogenate to 45 microliters of reaction mixture that contained the CHES buffer, the appropriate concentration of arginine (0.5 to 5 millimolar) and about 5.0×10^4 counts per minute of L-[guanidino-^14C]arginine. IAS, rectal muscle, and brain homogenates were incubated with the assay mixture at room temperature for one hour, and the liver sample was incubated for 5 minutes. The reactions were stopped by addition of 200 microliters of a stop solution containing 0.25 molar acetic acid, 7 molar urea, and 10 millimolar arginase at pH 4.5. Arginase has essentially no activity at the low pH of the stop solution. [^14C] Urea was separated from non-reacted L-[guanidino-^14C]arginine by treatment with 200 μl of 1:1 v/v slurry of DOWEX™ 50W-X8 in water, and quantitated by adding 200 microliters of the supernatant from the DOWEX™ treatment to 3 milliliters of LIQUISCENT™ (National Diagnostics) for liquid scintillation counting in a Beckman LS 5000CE counter. The data were analyzed using double-reciprocal plots of the initial velocity measurements; standard errors were determined by regression analysis.
(§3) Assays in the presence of the inhibitors N^ω-hydroxy-L-arginine (1 to 100 micromolar) and ABHA (0.05 to 100 micromolar) were performed as described above. The amino acid D-ornithine served as a control in these experiments, since this amino acid, unlike L-omithine, is not an inhibitor of arginase.

IAS arginase activity = assay: arginase activity in IAS homogenate; assay type: biochemical, opossum; conditions: IAS; read-out: IC50 for inhibition of arginase activity, IAS homogenate
Source text: as §1
as §2, with “The reactions were stopped by addition of 200 microliters of a stop solution containing 0.25 molar acetic acid, 7 molar urea, and 10 millimolar arginase at pH 4.5. Arginase has essentially no activity at the low pH of the stop solution. [^14C]” left out, “analysis. […]” for “analysis.”

rectum arginase activity = assay: arginase activity in rectum homogenate; assay type: biochemical, opossum; conditions: rectum; read-out: IC50 for inhibition of arginase activity, rectum homogenate
Source text: as §1, §2, §3

brain arginase activity = assay: arginase activity in brain homogenate; assay type: biochemical, opossum; conditions: brain; read-out: IC50 for inhibition of arginase activity, brain homogenate
Source text: as §1
as §2, with “The reactions were stopped by addition of 200 microliters of a stop solution containing 0.25 molar acetic acid, 7 molar urea, and 10 millimolar arginase at pH 4.5. Arginase has essentially no activity at the low pH of the stop solution. [^14C]” left out, “analysis. […]” for “analysis.”

arginase [5] = conditions: read-out: Ki previously reported; cited from earlier work
rat liver arginase [6] = molecular target: T2, rat liver arginase; assay: radioactive L-[guanidino-14C]arginine arginase assay (Example 3); assay type: biochemical; design: made in house
Description: Assays were performed in 100 micromolar MnCl2, 100 millimolar CHES-NaOH (pH 9.0). The reactions were initiated by addition of 5 microliters of a circa 1 unit per milliliter enzyme solution to 45 microliters of reaction mixture containing CHES buffer, 1.4 millimolar L-arginine, about 5.0×10^4 counts per minute of L-[guanidino- ^14C]arginine, and variable concentrations of the appropriate inhibitor. After a 5-15 minute reaction time, 200 microliters of a stop solution containing 7 molar urea, 10 millimolar L-arginine, and 0.25 molar acetic acid (pH 4.5) was added to the reaction (arginase has essentially no activity under these conditions). [^14C]-Urea was separated from non-reacted L-[guanidino-^14 C]arginine by treatment with 200 microliters of a 1:1 (vol/vol) slurry of DOWEX™ 50 W-X8 in water, and quantitated by adding 200 microliters of the supernatant from the DOWEX™ treatment to 3 milliliters of LIQUISCINT™ (National Diagnostics) for liquid scintillation counting in a Beckman LS5000CE counter.

arginase [7] = molecular target: T1, arginase; assay: isothermal titration calorimetry; assay type: binding; design: made in house
Description: All calorimetry experiments were conducted on a MCS isothermal calorimeter from MicroCal, Inc. (Northampton, Mass.). Arginase was exhaustively dialyzed against a solution comprising 100 micromolar MnCl2 and 50 millimolar bicine-NaOH (pH 8.5). […] Prior to the titration experiment, samples were de-gassed under vacuum for 5 minutes. […] The contents of the sample cell were titrated with 30-40 aliquots (2.5 microliters each) of inhibitor (an initial 1 microliters injection was made, but not used in data analysis). After each injection, the heat change was measured and converted to the corresponding enthalpy value. The reaction mixture was continuously stirred at 400 rotations per minute during titration. Control experiments were carried out by titrating the inhibitor into the buffer solution under identical experimental conditions. Data analysis was performed using ORIGIN™ software provided with the instrument. The calorimetric data are presented with the background titrations subtracted from the experimental data. The amount of heat produced per injection was calculated by integration of the area under each peak. The data were fit to the following equation, […]

NCCC[C@H](N)C(=O)O [ornithine]
Ki (arginase [1]; read-out: Ki): 1000 µM

N=C(N)NCCC[C@H](N)C(=O)O [L-arginine]
reversal of L-NNA-suppressed IAS relaxation [2]: significant and concentration-dependent reversal
kcat reported (arginase [1]; as substrate): 15,000±1200 reciprocal minutes
Km (arginase [1]; as substrate, read-out: KM reported): 1400 ± 300 µM

N[C@@H](CCCB(O)O)C(=O)O [compound 12, 2(S)-amino-5-boronopentanoic acid]
tnpseudo (moles of inhibitor/mole of arginase) (rat liver arginase [3]): 420 ± 30 moles of inhibitor/mole of arginase
fold less potent than compounds 7 and 15 (from tnpseudo) (rat liver arginase [3]; substrate 18): about 400 fold

N[C@@H](CSCC[Si](O)(O)O)C(=O)O [compound 16, S-(2-trihydroxysilylethyl)-L-cysteine]
Ki (rat liver arginase [3]; assay with substrate 18, assuming competitive inhibition): 420 µM

O[B-](O)(O)O [borate]
Ki (arginase [1]; non-competitive inhibitor, read-out: KII): 260 µM
Ki (arginase [1]; non-competitive inhibitor, read-out: KIS): 980 µM

N=C(NO)NCCC[C@H](N)C(=O)O [N-hydroxyarginine, N^ω-hydroxy-L-arginine]
IC50 (rat liver arginase [4]): 80 µM
decrease in IAS tension after L-HO-Arg ([2]; 0.5 Hertz EFS): 57.4±4.9%
decrease in IAS tension after L-HO-Arg ([2]; 1 Hertz EFS): 68.8±4.9%
effect on arginase-suppressed EFS-induced IAS relaxation ([2]; exogenous arginase, L-HO-Arg 1×10^−4 molar): antagonized the effect of arginase; also recorded: reversal
augmentation of NANC nerve-mediated IAS relaxation by EFS ([2]; lower frequencies of EFS, listed as L-HO-Arg): significant and concentration-dependent augmentation
reversal of L-NNA-suppressed IAS relaxation [2]: dose-dependent and complete reversal; also recorded: completely reversed
potency against liver arginase activity relative to non-hepatic tissues (liver arginase activity; listed as L-HO-Arg): 10-20 fold
potency against liver arginase activity relative to non-hepatic tissues (liver arginase activity; listed as N^107-hydroxy-L-arginine): about 10 fold
IC50 (liver arginase activity; liver, read-out: IC50 for inhibition of arginase activity, liver homogenate): 2.4 µM
IC50 (IAS arginase activity): 25 µM
IC50 (rectum arginase activity): 42 µM
IC50 (brain arginase activity): 40 µM
Ki (arginase [5]): 42 µM

NCCCC[C@H](NO)C(=O)O [N-hydroxylysine]
Ki (arginase [5]): 4 µM

N[C@@H](CSCCB(O)O)C(=O)O [compound 15, S-(2-boronoethyl)-L-cysteine]
tnpseudo (moles of inhibitor/mole of arginase) (rat liver arginase [3]): 1.00 ± 0.004 moles of inhibitor/mole of arginase
Ki (rat liver arginase [6]): 0.7 µM
Kd (arginase [7]): 2.22 µM
association constant (Ka) (arginase [7]; pH 8.5, 25° C.): 4.50×10^5 inverse molar
enthalpy change (ΔH) of binding (arginase [7]; pH 8.5, 25° C.): −12.75 kilocalories per mole
stoichiometry (n), moles bound per mole of arginase monomer (arginase [7]; pH 8.5, 25° C.): 0.96 and 0.964

N=C(NO)NCC[C@H](N)C(=O)O [N-hydroxy-nor-arginine]
Ki (arginase [5]): 0.5 µM

N=C(N)Nc1cccc([N+](=O)[O-])c1 [compound 18, 1-nitro-3-guanidinobenzene]
kcat for arginase-catalyzed hydrolysis (rat liver arginase [3]; as substrate, monomer 35 kilodaltons): 0.09±0.02 reciprocal minutes

NC(CCCCC(N)C(=O)O)=NO (centres unmarked) [N-hydroxyindospicine]
Ki (arginase [5]): 20 µM
